Read-outs that look alike come from different tables or passages of the source.
System: castrated immature young rats
Assay: Adapted model of Hershberger's test (levator ani and ventral prostate weight)
Type: in vivo, Sprague Dawley rats
Conditions: Rattus norvegicus, po, 96 h
[1] = read-out: anabolic protection efficacy with regard to levator ani
[2] = read-out: androgenic efficacy with regard to the prostate
[3] = ORX rats, 30 mg/kg per os, 4 successive days, ORX = 0%, SHAM = 100%, read-out: anabolic protection efficacy with regard to levator ani
[4] = ORX rats, 30 mg/kg per os, 4 successive days, ventral prostate, ORX = 0%, SHAM = 100%, read-out: androgenic efficacy with regard to the prostate

Structure (SMILES) | inhibition in vivo at 30 mg/kg [1] | inhibition in vivo at 30 mg/kg [2] | inhibition in vivo at 30 mg/kg [3] | inhibition in vivo at 30 mg/kg [4]
CN1C(=O)N(c2ccc(C#N)c(C(F)(F)F)c2)C(=O)C1(C)c1ccc(O)cc1 (centres unmarked) [Example 5, 4-[3,4-dimethyl-2,5-dioxo-4-(4-hydroxyphenyl)imidazolidin-1-yl]-2-trifluoromethylbenzonitrile] | 50 to 140% | 5 to 70% | – | –
C#CCN1C(=O)N(c2ccc(C#N)c(C(F)(F)F)c2)C(=O)C1c1ccc(O)cc1 (centres unmarked) [Example 4, 4-[2,5-dioxo-4-(4-hydroxyphenyl)-3-(2-propynyl)imidazolidin-1-yl]-2-trifluoromethylbenzonitrile] | 50 to 140% | 5 to 70% | – | –
C=CCN1C(=O)N(c2ccc(Cl)c(Cl)c2)C(=O)C1c1ccc(O)cc1 (centres unmarked) [Example 3, 1-(3,4-dichlorophenyl)-4-(4-hydroxyphenyl)-3-(2-propenyl)imidazolidine-2,5-dione] | – | – | 50 to 140% | 5 to 70%
CC#CCN1C(=O)N(c2ccc(C#N)c(C(F)(F)F)c2)C(=O)C1(C)c1ccc(O)cc1 (centres unmarked) [Example 220, 4-[3-(2-butynyl)-4-(4-hydroxyphenyl)-4-methyl-2,5-dioxoimidazolidin-1-yl]-2-trifluoromethylbenzonitrile] | 50 to 140% | 5 to 70% | – | –
CN1C(=O)N(c2ccc(C#N)c(C(F)(F)F)c2)C(=O)[C@@]1(C)c1ccc(O)cc1 [Example 155, (R)-4-[3,4-dimethyl-2,5-dioxo-4-(4-hydroxyphenyl)imidazolidin-1-yl]-2-trifluoromethylbenzonitrile] | 50 to 140% | 5 to 70% | – | –
C#CCN1C(=O)N(c2ccc(C#N)c(C(F)(F)F)c2)C(=O)C1(C)c1ccc(O)cc1 (centres unmarked) [Example 6, 4-[2,5-dioxo-4-(4-hydroxyphenyl)-4-methyl-3-(2-propynyl)imidazolidin-1-yl]-2-trifluoromethylbenzonitrile] | 50 to 140% | 5 to 70% | – | –
CN1C(=O)N(c2ccc(Cl)c(Cl)c2)C(=O)C1c1ccc(O)cc1 (centres unmarked) [Example 1, 1-(3,4-dichlorophenyl)-4-(4-hydroxyphenyl)-3-methylimidazolidine-2,5-dione] | – | – | 50 to 140% | 5 to 70%
